ChEMBL document CHEMBL1201862, “PubChem BioAssay data set” (2004)
Activity calls are given as the source filed them.

Columns and labels:
[1] = target: T1, Intestinal-type alkaline phosphatase (Mus musculus, UniProt P24822); experiment: PubChem AID 488874; assay type: functional
[2] = target: T1, Intestinal-type alkaline phosphatase; experiment: PubChem AID 488785; assay type: functional
[3] = target: T2, Intestinal-type alkaline phosphatase (Homo sapiens, UniProt P09923); experiment: human IAP inhibitors, dose response, biochemical, luminescent, uHTS hits, set 2 (AID 488793); assay type: functional
[4] = target: T3, Alkaline phosphatase, tissue-nonspecific isozyme (Homo sapiens, UniProt P05186); experiment: TNAP enzyme inhibition by screening hits, dose response, selectivity assay for mouse IAP inhibitor project, biochemical, human TNAP, uHTS hits (AID 488906); assay type: functional
T3 sequence (P05186 whole entry): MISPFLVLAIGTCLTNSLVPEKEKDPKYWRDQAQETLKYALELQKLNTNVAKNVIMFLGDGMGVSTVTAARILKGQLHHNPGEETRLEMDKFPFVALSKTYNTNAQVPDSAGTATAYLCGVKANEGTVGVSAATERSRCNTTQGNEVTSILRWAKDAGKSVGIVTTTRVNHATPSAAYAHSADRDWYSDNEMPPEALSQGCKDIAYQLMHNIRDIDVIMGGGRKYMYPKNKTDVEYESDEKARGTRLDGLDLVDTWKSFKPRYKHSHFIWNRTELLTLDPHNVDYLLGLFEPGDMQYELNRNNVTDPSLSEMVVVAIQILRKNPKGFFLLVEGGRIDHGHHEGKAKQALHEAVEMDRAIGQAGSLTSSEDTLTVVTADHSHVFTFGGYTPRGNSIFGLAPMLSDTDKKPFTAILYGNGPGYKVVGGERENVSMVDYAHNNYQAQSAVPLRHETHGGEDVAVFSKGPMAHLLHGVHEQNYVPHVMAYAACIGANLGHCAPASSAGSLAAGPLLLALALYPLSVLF

Large T antigen = Large T antigen (Simian virus 40, UniProt P03070); assay type: functional, Betapolyomavirus macacae;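 further: Confirmatory-stage PubChem screen for compounds that inhibit SV40 T antigen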
[5] = target: 1-phosphatidylinositol 4,5-bisphosphate phosphodiesterase gamma-1 (Homo sapiens, UniProt P19174); experiment: Counterscreen for inhibitors of phospholipase C isozymes (PLC-B3): Fluorescence-based biochemical high throughput dose response assay to identify inhibitors of phospholipase C isozymes (PLC-gamma1).
[6] = target: T2, Intestinal-type alkaline phosphatase; experiment: Dose Response confirmation of uHTS hits from a small molecule inhibitors of human intestinal alkaline phosphatase via a luminescent assay. [Related pubchem assays (depositor defined):AID2544, AID2574]; assay type: functional
[7] = target: T2, Intestinal-type alkaline phosphatase; experiment: activation of human intestinal alkaline phosphatase – biochemical, dose response (AID 488873); assay type: functional
Cytochrome P450 3A4 = Cytochrome P450 3A4 (Homo sapiens, UniProt P08684);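 further: CYP3A4 tested as one member of a cytochrome P450 panel screen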
[8] = target: 1-phosphatidylinositol 4,5-bisphosphate phosphodiesterase beta-3 (Homo sapiens, UniProt Q01970); experiment: Fluorescence-based biochemical high throughput dose response assay to identify inhibitors of phospholipase C isozymes (PLC-B3).
[9] = target: T3, Alkaline phosphatase, tissue-nonspecific isozyme; experiment: inhibition of tissue-nonspecific alkaline phosphatase – biochemical, dose response (AID 488882); assay type: functional
[10] = target: Beta-adrenergic receptor kinase 1 (Homo sapiens, UniProt P25098); experiment: GRK2 inhibitors displacing RNA aptamer, dose response, biochemical, flow cytometry beads, FAM-aptamer, powder set 1 (AID 588720)
[11] = cytotoxicity in HMLE control line with eGFP shRNA, dose response, counter-screen for HMLE_sh_ECad selective toxicity project, cell-based, HMLE_sh_eGFP, luminescence (AID 463074); assay type: functional, Homo sapiens;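 further: HMLE human mammary epithelial cells expressing control shRNA against eGFP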
[12] = Luminescence Cell-Based Dose Retest to Confirm Inhibitors of Cancer Stem Cells. [Related pubchem assays (depositor defined):AID2717, AID2721]; assay type: functional; settings: Homo sapiens
[13] = C. albicans growth with fluconazole, confirmation, fluorescence, retest (AID 2467); assay type: functional, cell-based
[14] = NIH-3T3 fibroblast cytotoxicity, dose response, cytotoxicity control, cell-based, fluorescence, Alamar Blue, secondary assay (AID 2327); assay type: functional;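 further: NIH-3T3 mouse fibroblasts cultured with fluconazole at 8 µg/mL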
Cytochrome P450 1A2 [15] = target: T4, Cytochrome P450 1A2 (Homo sapiens, UniProt P05177);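 further: PubChem cytochrome P450 panel assay, CYP1A2 panel member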
T4 sequence (P05177 whole entry): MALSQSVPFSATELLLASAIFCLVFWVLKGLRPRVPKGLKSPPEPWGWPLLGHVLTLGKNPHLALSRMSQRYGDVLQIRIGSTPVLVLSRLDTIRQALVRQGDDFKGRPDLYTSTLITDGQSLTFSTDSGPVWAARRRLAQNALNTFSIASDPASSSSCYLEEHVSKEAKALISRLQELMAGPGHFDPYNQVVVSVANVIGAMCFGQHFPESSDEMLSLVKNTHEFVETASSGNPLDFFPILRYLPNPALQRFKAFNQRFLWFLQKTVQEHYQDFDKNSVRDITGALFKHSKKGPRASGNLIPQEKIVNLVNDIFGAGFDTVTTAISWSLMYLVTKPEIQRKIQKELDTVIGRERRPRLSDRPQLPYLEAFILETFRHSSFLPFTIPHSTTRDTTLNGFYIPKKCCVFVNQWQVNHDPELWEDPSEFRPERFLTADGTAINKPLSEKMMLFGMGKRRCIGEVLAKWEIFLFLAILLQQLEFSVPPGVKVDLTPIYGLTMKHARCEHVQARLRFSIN

Cytochrome P450 2C19 = Cytochrome P450 2C19 (Homo sapiens, UniProt P33261); experiment: Cytochrome panel assay with activity outcomes. Panel member name: p450-cyp2c19 Compounds with AC50 equal or less than 10 uM are considered active; assay type: functional
Cytochrome P450 2C9 = Cytochrome P450 2C9 (Homo sapiens, UniProt P11712)
Cytochrome P450 1A2 [16] = target: T4, Cytochrome P450 1A2; remark: listed apart in the source
Cytochrome P450 2D6 = Cytochrome P450 2D6 (Homo sapiens, UniProt P10635);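 further: CYP2D6 member of a cytochrome P450 panel assay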
[17] = cytotoxicity in MIN6 insulinoma cells, dose response, cytotoxicity control, cell-based, mouse insulinoma (AID 2122); assay type: functional;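 further: confirmatory high-throughput counterscreen run to flag cytotoxic compounds; mouse MIN-6 beta cells carrying an insulin promoter eGFP reporter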
[18] = target: T5, Replicative DNA helicase DnaB (Mycobacterium tuberculosis, UniProt P9WMR3); experiment: DnaB intein splicing inhibitors, dose response, biochemical, cell-free fluorescence (AID 449749); assay type: functional
T5 sequence (P9WMR3 whole entry): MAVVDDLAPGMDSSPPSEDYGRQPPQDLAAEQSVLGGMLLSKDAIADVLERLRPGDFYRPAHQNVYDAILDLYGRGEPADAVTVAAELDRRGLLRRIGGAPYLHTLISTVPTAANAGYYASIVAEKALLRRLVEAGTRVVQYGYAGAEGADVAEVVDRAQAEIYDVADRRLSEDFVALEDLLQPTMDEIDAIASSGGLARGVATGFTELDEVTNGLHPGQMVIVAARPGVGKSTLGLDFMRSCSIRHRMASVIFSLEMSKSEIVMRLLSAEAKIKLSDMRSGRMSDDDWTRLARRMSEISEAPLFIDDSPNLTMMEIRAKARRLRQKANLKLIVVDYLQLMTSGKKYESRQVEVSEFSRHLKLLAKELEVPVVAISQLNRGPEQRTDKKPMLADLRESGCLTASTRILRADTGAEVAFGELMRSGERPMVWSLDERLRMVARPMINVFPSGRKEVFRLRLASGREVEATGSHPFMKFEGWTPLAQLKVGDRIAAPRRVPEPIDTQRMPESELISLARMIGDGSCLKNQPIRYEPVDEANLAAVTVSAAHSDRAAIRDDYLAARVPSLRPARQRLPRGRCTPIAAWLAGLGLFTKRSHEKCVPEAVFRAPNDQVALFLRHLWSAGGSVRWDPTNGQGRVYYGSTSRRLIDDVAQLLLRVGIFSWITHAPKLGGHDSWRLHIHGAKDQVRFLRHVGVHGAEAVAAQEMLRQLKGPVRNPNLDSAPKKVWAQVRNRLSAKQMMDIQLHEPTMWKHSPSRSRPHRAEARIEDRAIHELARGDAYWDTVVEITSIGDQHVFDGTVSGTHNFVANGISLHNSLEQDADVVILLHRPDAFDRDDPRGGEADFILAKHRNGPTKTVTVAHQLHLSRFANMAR

Protein RecA = target: T6, Protein RecA (Mycobacterium tuberculosis, UniProt P9WHJ3); experiment: Fluorescence Cell-Free Homogeneous Dose Retest to Identify Inhibitors of RecA-Intein Splicing Activity. [Related pubchem assays (depositor defined):AID2097, AID2223, AID489010, AID492950]; assay type: functional
T6 sequence (P9WHJ3 whole entry): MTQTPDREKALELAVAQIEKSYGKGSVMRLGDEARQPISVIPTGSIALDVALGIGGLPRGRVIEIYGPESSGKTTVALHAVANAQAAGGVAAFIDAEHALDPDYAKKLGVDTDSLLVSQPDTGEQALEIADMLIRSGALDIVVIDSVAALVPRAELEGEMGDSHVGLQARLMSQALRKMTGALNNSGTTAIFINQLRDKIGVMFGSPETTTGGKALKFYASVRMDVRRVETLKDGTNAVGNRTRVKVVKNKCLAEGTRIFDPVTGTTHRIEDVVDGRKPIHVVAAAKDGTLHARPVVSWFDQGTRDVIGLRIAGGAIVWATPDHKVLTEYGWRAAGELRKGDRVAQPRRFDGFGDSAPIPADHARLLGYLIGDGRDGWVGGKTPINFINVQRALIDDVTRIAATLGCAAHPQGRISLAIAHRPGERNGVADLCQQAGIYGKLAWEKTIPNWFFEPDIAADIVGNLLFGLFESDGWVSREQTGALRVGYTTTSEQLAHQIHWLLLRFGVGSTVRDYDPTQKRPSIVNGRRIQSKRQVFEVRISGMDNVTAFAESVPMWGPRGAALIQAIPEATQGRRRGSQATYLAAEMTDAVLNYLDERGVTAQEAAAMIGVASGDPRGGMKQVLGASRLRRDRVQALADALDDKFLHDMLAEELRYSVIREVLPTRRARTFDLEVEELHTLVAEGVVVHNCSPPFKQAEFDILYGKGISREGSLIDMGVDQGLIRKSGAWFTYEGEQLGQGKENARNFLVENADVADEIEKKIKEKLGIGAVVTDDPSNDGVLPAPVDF

[19] = insulin promoter down-regulators in MIN6 cells, imaging, high-content screening, mouse beta cells (AID 1628); assay type: functional
[20] = target: T7, Ubiquitin-conjugating enzyme E2 N (Homo sapiens, UniProt P61088); assay type: functional;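 further: Dose-response confirmation in a TR-FRET assay detecting UBC13-driven polyubiquitin chain formation, inhibition measured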
T7 sequence (P61088 whole entry): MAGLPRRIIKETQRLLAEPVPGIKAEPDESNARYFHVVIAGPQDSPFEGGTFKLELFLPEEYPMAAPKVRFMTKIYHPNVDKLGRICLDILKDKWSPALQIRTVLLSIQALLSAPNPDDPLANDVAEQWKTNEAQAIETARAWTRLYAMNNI

BJ [21] = experiment: cells; assay type: functional, cell-based; settings: Homo sapiens
BJ [22] = experiment: cytotoxicity toward BJ-TERT fibroblasts, dose response, cell-based, RAS-independent, luminescence (AID 1933); assay type: functional; settings: Homo sapiens
[23] = cytotoxicity toward DRD oncogenic fibroblasts, dose response, cell-based, non-viral oncogenic, luminescence (AID 1934); assay type: functional; settings: Homo sapiens
Cysteine protease ATG4B = target: T8, Cysteine protease ATG4B (Homo sapiens, UniProt Q9Y4P1); experiment: ATG4B protease inhibitors, dose response, biochemical, fluorescence, set 2 (AID 588584); assay type: functional
T8 sequence (Q9Y4P1 whole entry): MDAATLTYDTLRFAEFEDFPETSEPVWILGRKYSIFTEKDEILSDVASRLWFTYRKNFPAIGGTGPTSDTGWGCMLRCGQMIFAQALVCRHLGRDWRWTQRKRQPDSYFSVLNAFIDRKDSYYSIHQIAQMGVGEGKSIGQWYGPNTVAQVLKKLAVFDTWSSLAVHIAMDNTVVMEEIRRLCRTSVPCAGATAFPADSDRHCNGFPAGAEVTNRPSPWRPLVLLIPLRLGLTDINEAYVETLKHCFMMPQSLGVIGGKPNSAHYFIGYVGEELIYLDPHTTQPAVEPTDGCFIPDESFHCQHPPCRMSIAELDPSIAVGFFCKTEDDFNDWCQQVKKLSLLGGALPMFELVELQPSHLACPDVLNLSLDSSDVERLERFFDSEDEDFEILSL

Phospholipase A2 = Phospholipase A2 (Homo sapiens, UniProt P04054); experiment: PLA2 enzyme inhibitors, dose response, counter-screen for ATG4B inhibitor project, biochemical, set 2 (AID 588586); assay type: functional

T2 sequence (P09923 whole entry): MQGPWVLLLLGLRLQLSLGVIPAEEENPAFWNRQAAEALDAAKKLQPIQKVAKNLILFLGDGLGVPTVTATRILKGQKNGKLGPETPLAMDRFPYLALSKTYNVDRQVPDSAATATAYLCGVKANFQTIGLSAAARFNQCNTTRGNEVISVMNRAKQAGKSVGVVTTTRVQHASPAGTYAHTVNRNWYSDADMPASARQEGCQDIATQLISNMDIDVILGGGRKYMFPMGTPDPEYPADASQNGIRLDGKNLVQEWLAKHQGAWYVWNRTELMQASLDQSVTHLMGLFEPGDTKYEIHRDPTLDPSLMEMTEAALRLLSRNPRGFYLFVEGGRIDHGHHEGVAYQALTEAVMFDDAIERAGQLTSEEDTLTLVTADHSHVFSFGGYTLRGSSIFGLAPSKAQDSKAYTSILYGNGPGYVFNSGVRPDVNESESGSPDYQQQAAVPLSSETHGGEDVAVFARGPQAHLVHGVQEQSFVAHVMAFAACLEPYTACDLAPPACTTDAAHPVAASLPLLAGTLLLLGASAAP
T1 sequence (P24822 whole entry): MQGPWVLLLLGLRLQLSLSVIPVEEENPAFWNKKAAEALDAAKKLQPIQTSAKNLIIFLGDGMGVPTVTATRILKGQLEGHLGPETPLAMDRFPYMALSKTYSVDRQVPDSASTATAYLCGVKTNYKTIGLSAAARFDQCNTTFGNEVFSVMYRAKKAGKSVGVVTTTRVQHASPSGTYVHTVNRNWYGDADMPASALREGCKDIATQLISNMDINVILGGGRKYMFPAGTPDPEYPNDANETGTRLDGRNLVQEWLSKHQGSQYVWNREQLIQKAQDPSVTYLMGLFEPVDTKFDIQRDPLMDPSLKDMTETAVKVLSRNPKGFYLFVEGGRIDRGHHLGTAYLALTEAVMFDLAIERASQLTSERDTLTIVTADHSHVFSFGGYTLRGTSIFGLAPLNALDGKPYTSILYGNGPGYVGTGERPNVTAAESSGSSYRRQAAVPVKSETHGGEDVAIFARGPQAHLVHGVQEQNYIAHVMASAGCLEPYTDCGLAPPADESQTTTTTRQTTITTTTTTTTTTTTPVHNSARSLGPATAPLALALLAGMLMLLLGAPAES
Sequence of Cytochrome P450 3A4 (P08684 whole entry): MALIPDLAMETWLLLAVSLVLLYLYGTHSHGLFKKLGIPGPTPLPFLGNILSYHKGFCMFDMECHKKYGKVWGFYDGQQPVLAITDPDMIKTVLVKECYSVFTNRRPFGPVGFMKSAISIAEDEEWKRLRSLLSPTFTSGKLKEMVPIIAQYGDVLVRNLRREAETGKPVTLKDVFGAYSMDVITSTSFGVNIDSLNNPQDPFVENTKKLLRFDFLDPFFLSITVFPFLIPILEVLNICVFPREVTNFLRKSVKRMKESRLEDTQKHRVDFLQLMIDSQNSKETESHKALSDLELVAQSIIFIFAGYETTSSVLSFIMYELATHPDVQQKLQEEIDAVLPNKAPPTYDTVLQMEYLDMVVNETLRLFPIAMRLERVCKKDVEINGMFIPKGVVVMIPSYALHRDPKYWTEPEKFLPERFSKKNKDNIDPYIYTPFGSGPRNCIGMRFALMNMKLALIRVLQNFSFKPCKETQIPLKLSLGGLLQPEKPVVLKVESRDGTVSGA
Sequence of Cytochrome P450 2D6 (P10635 whole entry): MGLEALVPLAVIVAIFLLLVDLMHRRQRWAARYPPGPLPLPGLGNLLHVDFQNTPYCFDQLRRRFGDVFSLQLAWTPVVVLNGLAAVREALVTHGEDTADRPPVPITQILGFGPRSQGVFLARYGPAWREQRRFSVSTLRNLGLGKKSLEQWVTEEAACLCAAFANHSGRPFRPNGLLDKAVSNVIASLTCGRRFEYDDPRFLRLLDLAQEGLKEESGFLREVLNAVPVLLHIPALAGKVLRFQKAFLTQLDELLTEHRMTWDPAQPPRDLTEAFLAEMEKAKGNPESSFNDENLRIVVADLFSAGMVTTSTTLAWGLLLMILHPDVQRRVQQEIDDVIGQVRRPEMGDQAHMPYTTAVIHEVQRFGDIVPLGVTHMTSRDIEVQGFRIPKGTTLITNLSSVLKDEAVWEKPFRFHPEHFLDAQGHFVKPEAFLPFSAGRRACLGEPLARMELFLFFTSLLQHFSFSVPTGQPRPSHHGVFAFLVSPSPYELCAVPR
Sequence of Cytochrome P450 2C19 (P33261 whole entry): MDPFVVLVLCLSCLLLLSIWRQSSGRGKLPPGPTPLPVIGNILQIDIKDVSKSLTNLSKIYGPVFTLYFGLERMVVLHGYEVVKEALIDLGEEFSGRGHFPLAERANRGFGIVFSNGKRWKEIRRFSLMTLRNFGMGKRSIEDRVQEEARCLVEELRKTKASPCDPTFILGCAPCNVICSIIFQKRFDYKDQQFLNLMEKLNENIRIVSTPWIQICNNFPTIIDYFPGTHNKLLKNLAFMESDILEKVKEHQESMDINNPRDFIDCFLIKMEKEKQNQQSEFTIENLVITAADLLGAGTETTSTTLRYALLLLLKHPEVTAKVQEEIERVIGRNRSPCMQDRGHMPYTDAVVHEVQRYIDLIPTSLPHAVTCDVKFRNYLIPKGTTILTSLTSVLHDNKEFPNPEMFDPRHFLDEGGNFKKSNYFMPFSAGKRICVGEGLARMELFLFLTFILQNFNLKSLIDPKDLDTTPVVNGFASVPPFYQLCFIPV
Sequence of Large T antigen (P03070 whole entry): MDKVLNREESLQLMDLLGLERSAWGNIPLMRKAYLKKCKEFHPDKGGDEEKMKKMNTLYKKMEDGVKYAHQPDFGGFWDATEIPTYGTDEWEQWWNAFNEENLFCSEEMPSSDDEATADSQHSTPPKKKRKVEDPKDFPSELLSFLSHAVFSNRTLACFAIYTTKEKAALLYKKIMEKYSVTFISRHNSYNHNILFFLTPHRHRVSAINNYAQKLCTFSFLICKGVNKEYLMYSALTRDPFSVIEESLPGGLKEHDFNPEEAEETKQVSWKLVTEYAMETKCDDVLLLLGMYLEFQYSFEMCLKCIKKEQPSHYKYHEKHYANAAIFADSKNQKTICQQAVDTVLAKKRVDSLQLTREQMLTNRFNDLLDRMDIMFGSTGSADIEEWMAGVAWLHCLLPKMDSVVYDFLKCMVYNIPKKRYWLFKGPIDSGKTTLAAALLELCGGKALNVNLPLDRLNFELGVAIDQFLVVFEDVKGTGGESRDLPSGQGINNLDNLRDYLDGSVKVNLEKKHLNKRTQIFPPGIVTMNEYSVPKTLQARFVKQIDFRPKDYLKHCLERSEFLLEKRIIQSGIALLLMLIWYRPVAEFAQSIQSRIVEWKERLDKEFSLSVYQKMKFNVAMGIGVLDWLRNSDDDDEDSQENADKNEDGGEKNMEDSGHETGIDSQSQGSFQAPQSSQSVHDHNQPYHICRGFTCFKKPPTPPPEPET
Sequence of Cytochrome P450 2C9 (P11712 whole entry): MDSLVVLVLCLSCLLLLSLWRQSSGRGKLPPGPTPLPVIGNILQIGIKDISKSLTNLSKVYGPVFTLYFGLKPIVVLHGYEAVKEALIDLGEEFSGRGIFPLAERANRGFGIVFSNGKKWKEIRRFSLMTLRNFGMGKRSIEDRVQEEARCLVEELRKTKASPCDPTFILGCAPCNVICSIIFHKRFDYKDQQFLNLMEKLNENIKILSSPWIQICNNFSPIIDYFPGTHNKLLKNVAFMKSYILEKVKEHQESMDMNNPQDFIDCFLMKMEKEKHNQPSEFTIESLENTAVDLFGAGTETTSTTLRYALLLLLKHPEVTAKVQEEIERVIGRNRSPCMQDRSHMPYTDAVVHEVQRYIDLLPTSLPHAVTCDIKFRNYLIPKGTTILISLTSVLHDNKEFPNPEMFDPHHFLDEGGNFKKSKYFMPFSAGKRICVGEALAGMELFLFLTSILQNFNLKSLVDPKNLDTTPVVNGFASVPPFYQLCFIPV
Sequence of 1-phosphatidylinositol 4,5-bisphosphate phosphodiesterase beta-3 (Q01970 whole entry): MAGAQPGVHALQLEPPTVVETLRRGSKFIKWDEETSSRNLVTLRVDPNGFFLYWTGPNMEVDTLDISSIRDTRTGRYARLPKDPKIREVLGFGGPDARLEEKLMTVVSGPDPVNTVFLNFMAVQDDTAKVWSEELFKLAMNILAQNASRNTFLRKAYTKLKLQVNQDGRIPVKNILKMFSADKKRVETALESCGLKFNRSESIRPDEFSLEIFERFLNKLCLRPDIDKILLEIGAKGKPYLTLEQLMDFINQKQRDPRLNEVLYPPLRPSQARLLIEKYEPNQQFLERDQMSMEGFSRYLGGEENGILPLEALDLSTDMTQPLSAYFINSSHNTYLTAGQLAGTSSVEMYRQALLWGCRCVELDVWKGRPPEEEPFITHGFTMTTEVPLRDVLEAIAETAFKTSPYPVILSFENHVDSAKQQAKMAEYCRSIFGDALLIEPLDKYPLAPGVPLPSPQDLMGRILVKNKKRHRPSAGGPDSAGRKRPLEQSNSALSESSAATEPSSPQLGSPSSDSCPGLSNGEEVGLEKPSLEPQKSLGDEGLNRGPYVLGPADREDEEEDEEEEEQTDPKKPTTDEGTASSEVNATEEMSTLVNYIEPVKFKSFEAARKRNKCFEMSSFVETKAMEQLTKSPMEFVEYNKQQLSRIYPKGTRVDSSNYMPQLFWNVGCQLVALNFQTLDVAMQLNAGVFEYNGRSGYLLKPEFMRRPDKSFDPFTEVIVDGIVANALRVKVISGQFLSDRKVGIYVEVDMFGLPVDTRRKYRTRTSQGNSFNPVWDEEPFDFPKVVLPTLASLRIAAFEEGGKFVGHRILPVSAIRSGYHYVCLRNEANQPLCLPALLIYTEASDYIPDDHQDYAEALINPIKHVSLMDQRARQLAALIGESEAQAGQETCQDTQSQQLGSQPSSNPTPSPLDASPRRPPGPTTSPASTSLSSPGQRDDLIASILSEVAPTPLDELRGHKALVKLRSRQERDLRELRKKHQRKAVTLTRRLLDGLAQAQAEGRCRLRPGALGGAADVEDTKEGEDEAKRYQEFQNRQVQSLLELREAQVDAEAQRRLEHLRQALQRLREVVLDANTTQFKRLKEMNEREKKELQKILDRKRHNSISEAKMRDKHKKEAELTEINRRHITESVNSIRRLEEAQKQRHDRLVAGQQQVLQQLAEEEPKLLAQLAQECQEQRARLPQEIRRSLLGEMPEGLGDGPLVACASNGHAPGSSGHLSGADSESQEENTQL

COc1cc(/C=C(\C#N)C(=O)c2ccc(O)c(O)c2)cc(I)c1O
IC50 [1]: < 0.195 µM (active)
IC50 [2]: 5.7 µM (active)
IC50 [3]: 4.56 µM (active)
IC50 [4]: > 100 µM (inactive)
IC50 (Large T antigen): 7.17 µM (active)
IC50 [5]: > 122 µM (inactive)
IC50 [6]: 7.31 µM (active)
EC50 [7]: > 100 µM (inactive)
AC50 (Cytochrome P450 3A4): 12.6 µM (inconclusive)
IC50 [8]: > 122 µM (inactive)
IC50 [9]: 5.88 µM (active)

COc1ccc(NC(=O)CCS(=O)(=O)c2ccc(Br)s2)cc1
EC50 [10]: 9.14 µM (active)

CCCc1ccc(C2C3=C(CC(C)(C)CC3=O)N=C3C2=C(O)c2ccccc23)cc1 (stereo unspecified)
AC50 [11]: 187 µM (active)
AC50 [12]: 24.9 µM (active)
EC50 [13]: 2.66 µM (active)
EC50 [14]: > 150 µM (inactive)
AC50 (Cytochrome P450 1A2 [15]): 6.31 µM (inconclusive)

Cn1cccc1C(=O)N1CCC2(CCCN(c3ncccn3)C2)CC1
AC50 (Cytochrome P450 2C19): inconclusive
AC50 (Cytochrome P450 2C9): inconclusive
AC50 (Cytochrome P450 1A2 [16]): inconclusive
AC50 (Cytochrome P450 2D6): inconclusive

Fc1ccc(Nc2nc(NCc3ccco3)c3ccccc3n2)cc1
IC50 [17]: 1.93 µM (active)
AC50 [18]: 1.93 µM (active)
EC50 (Protein RecA): 8.32 µM (active)
IC50 [19]: 1.7 µM (active)
IC50 [20]: > 20 µM (inactive)

CCC1=Nc2cc(C(=O)NCc3ccco3)ccc2Sc2ccc(Cl)cc21
EC50 (BJ [21]): 20.4 µM (active)
EC50 (BJ [22]): 1.55 µM (active)
EC50 [23]: 1.97 µM (active)
IC50 (Cysteine protease ATG4B): > 80 µM (inactive)
IC50 (Phospholipase A2): 40.1 µM (inactive)
